Patent US12351581B2, “Compounds for FGFR inhibition” (Cogent Biosciences, Inc., priority 2023, dated 2025)
Like-named read-outs stand apart in the source and are kept apart here.

What was measured:
FGFR2 = target: T1, FGFR2 (Homo sapiens, UniProt P21802); experiment: FGFR wild type enzyme assay (HTRF KinEASE-TK); assay type: biochemical; details: ATP 2 uM
T1 construct: biochemical assays using purified intracellular domains of the respective isoforms; purchased Carna Bioscience 08-134
In short: (§1)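 Purified intracellular kinase domains, enzyme pre-incubated 30 min with compound (11-point 1:3 dilutions, typically 10,000-0.17 nM), then ATP plus 0.5 uM TK-peptide, 60 min at room temperature in HEPES pH7.5 with Mg2+/Mn2+. HTRF 665/615 ratio converted to percent of control; IC50 from four-parameter logistic fit.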

FGFR2 V564F = target: T2, FGFR2 V564F (Homo sapiens, UniProt P21802, V564F); experiment: FGFR mutant enzyme assay (HTRF KinEASE-TK); assay type: biochemical; details: ATP 1.5 uM
T2 construct: biochemical assays using purified intracellular domains of the respective isoforms; purchased SignalChem Biotech F05-12FG
In short: as §1

FGFR2 N549H = target: T3, FGFR2 N549H (Homo sapiens, UniProt P21802, N549H); experiment: FGFR mutant enzyme assay (HTRF KinEASE-TK); assay type: biochemical; details: ATP 0.9 uM
T3 construct: biochemical assays using purified intracellular domains of the respective isoforms; purchased Carna Bioscience 08-532
In short: as §1

FGFR2 V564I = target: T4, FGFR2 V564I (Homo sapiens, UniProt P21802, V564I); experiment: FGFR mutant enzyme assay (HTRF KinEASE-TK); assay type: biochemical; details: ATP 0.4 uM
T4 construct: biochemical assays using purified intracellular domains of the respective isoforms; purchased Carna Bioscience 08-546
In short: as §1

FGFR2-WT = FGFR2-WT (Homo sapiens, UniProt P21802); experiment: Phosphorylated FGFR2-WT (pFGFR2-WT) cell assay, KATOIII cells; assay type: cell-based; details: 1 hour incubation, phospho FGFR2 HTRF
In short: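 KATOIII cells treated 1 h at 37 °C with threefold compound dilutions (10 μM to 0.5 nM). Lysate phospho-FGFR2 (Tyr653/654) read by HTRF.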

[1] = compound table after the examples, read-out: Enz FGFR2

T3 sequence (P21802 399-821 N549H limits assumed): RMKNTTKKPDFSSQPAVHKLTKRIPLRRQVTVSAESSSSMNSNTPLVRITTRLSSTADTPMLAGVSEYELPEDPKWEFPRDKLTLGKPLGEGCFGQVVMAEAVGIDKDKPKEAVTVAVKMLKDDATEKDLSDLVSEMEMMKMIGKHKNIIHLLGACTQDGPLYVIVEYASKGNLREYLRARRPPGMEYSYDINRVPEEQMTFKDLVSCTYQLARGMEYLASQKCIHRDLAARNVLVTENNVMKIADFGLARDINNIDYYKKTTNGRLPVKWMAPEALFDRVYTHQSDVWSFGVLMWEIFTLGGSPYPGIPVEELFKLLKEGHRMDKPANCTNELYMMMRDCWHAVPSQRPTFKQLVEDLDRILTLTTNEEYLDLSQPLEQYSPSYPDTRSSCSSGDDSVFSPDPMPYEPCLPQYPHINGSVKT
T4 sequence (P21802 399-821 V564I limits assumed): as the sequence (P21802 399-821 N549H limits assumed) above, with H151N, V166I counted along it
T2 sequence (P21802 399-821 V564F limits assumed): as the sequence (P21802 399-821 N549H limits assumed) above, with H151N, V166F counted along it
T1 sequence (P21802 399-821 limits assumed): as the sequence (P21802 399-821 N549H limits assumed) above, with H151N counted along it
Sequence of FGFR2-WT (P21802 430-767 limits assumed): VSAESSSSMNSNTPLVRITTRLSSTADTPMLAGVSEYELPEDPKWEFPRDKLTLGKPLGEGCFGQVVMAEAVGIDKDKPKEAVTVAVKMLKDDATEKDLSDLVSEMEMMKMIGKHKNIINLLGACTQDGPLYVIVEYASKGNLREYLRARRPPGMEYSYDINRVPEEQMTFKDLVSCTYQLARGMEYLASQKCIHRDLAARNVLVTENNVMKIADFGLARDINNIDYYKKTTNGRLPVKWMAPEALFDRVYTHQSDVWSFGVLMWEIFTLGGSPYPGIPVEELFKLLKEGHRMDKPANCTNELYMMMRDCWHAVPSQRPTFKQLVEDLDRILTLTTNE

| Structure (SMILES) | IC50 (FGFR2; Table 3, read-out: FGFR2 Enz) | IC50 (FGFR2; [1]) | IC50 (FGFR2 V564F) | IC50 (FGFR2 N549H) | IC50 (FGFR2 V564I) | IC50 (FGFR2-WT) |
| --- | --- | --- | --- | --- | --- | --- |
| CN=S1(=O)CCC(n2cc(-c3cc(O[C@H](C)c4ccc(F)cn4)c4c(C#N)cnn4c3)cn2)CC1 (stereo partly drawn) [Compound 58, (R)-4-(1-(5-fluoropyridin-2-yl)ethoxy)-6-(1-(1-(methylimino)-1-oxidohexahydro-116-thiopyran-4-yl)-1H-pyrazol-4-yl)pyrazolo[1,5-a]pyridine-3-carbonitrile] | 0.15 nM | 0.15 nM | 0.45 nM | 0.15 nM | 1 nM | 1.6 nM |
| CC[C@@H](Oc1cc(-c2cnn([C@H]3CC[C@H](O)CC3)c2C)cn2ncc(C#N)c12)c1ccc(F)cn1 [Compound 60, 4-((R)-1-(5-fluoropyridin-2-yl)propoxy)-6-(1-((1r,4R)-4-hydroxycyclohexyl)-5-methyl-1H-pyrazol-4-yl)pyrazolo[1,5-a]pyridine-3-carbonitrile] | 0.4 nM | 0.4 nM | 1.5 nM | 0.5 nM | 2 nM | 3.5 nM |
| Cc1c(-c2cc(O[C@H](C)c3ccc(F)cn3)c3c(C#N)cnn3c2)cnn1[C@H]1CCCC[C@@H]1O [Compound 61, 4-((R)-1-(5-fluoropyridin-2-yl)ethoxy)-6-(1-((1S,2S)-2-hydroxycyclohexyl)-5-methyl-1H-pyrazol-4-yl)pyrazolo[1,5-a]pyridine-3-carbonitrile] | 0.3 nM | 0.3 nM | 1 nM | 0.4 nM | 1.5 nM | 3 nM |
| Cc1c(-c2cc(O[C@H](C)c3ccc(F)cn3)c3c(C#N)cnn3c2)cnn1[C@@H]1CCCC[C@H]1O [Compound 62, 4-((R)-1-(5-fluoropyridin-2-yl)ethoxy)-6-(1-((1R,2R)-2-hydroxycyclohexyl)-5-methyl-1H-pyrazol-4-yl)pyrazolo[1,5-a]pyridine-3-carbonitrile] | 7 nM | 8 nM | 21.5 nM | 9 nM | 30 nM | 48 nM |
| C[C@@H](Oc1cc(-c2ccc(N3CC[C@@H](O)[C@H](O)C3)nc2)cn2ncc(C#N)c12)c1ccc(F)cn1 [Compound 64, 6-(6-((3R,4R)-3,4-dihydroxypiperidin-1-yl)pyridin-3-yl)-4-((R)-1-(5-fluoropyridin-2-yl)ethoxy)pyrazolo[1,5-a]pyridine-3-carbonitrile] | 0.3 nM | – | 0.6 nM | 0.2 nM | 0.7 nM | 4 nM |

The next lines start with the values.

| IC50 (FGFR2; Table 3, read-out: FGFR2 Enz) | IC50 (FGFR2; [1]) | IC50 (FGFR2 V564F) | IC50 (FGFR2 N549H) | IC50 (FGFR2 V564I) | IC50 (FGFR2-WT) | Structure (SMILES) |
| --- | --- | --- | --- | --- | --- | --- |
| 0.5 nM | 0.5 nM | 3 nM | 1 nM | 3 nM | 5.7 nM | Cc1c(-c2cc(O[C@H](C)c3ccc(F)cn3)c3c(C#N)cnn3c2)nnn1[C@H]1CC[C@H](O)CC1 [Compound 59, 4-((R)-1-(5-fluoropyridin-2-yl)ethoxy)-6-(1-((1r,4R)-4-hydroxycyclohexyl)-5-methyl-1H-1,2,3-triazol-4-yl)pyrazolo[1,5-a]pyridine-3-carbonitrile] |
| 0.3 nM | 0.3 nM | 1 nM | 0.3 nM | 1 nM | 3.3 nM | C[C@@H](Oc1cc(-c2ccc(N3CC[C@H](O)[C@@H](O)C3)nc2)cn2ncc(C#N)c12)c1ccc(F)cn1 [Compound 63, 6-(6-((3S,4S)-3,4-dihydroxypiperidin-1-yl)pyridin-3-yl)-4-((R)-1-(5-fluoropyridin-2-yl)ethoxy)pyrazolo[1,5-a]pyridine-3-carbonitrile] |
| 3 nM | 3 nM | 9.5 nM | 3.5 nM | 10.6 nM | 21 nM | Cc1c(-c2cc(O[C@H](CO)c3ccc(F)cn3)c3c(C#N)cnn3c2)cnn1[C@H]1CC[C@H](O)CC1 [Compound 65, 4-((S)-1-(5-fluoropyridin-2-yl)-2-hydroxyethoxy)-6-(1-((1r,4S)-4-hydroxycyclohexyl)-5-methyl-1H-pyrazol-4-yl)pyrazolo[1,5-a]pyridine-3-carbonitrile] |
